Source: patent publication US9156852B2, “Thieno[3,2-D]pyrimidine derivatives having inhibitory activity for protein kinases” (HANMI PHARM. CO., LTD, priority 2011, dated 2015)

What was measured:
[1] = tested on: SK-Mel-2 cells (N-RAS mutant melanoma); assay: Inhibition on cell growth of N-RAS mutant cell SK-Mel-2 (SRB); type: cell-based; conditions: Homo sapiens, 72 hours, SRB staining, described as GI50 in the method
Method: (§1) N-RAS mutant cells, SK-Mel-2 cell lines (ATCC #HTB-68™), were obtained from ATCC (American Type Culture Collection: Rockville, Md.). SK-Mel-2 cell lines were incubated in a MEM medium supplemented with 10% FBS and 1% penicillin/streptomycin (Gibco BRL) under 37° C., 5% CO2 and 95% air. The cell lines were transferred into 96-well plates at a density of 5,000 cells/well, and cultured for 18 hours or more. The cells were treated with […]˜0.1 nM of test compounds, and cultured for 72 hours.
(§2) To evaluate cell viabilities, SK-Mel-2 cell lines were fixed with 10% TCA (trichloroacetic acid), stained with SRB (sulfohodamine B), and an absorbance was measured at 540 nm. Then, GI50, i.e., the concentration of drug to cause 50% reduction in proliferation of cancer cells, were calculated therefrom. The growth rates of cancer cells were calculated by Equation 1 or 2. [(Ti−Tz)/(C−Tz)]×100 (for Ti>=Tz) [Equation 1] [(Ti−Tz/Tz)×100 (for Ti<Tz) [Equation 2]
(§3) In Equations 1 and 2, ‘Tz’ refers to a density of untreated cells, which is an absorbance in 0% cell growth groups. ‘C’ refers to a density of cells cultured by adding only medium, and ‘Ti’ refers to a density of cells treated with test compounds.
GI50 value is the concentration of a test compound when the value of Equation 1 is 50, which indicates the concentration of test compound needed to reduce the growth of cancer cells to 50%. On each measurement, test compounds were compared with a control.

FMS = FMS (Homo sapiens (Human), UniProt P07333); assay: FMS kinase activity, Kinase Screening and Profiling Service (Invitrogen); type: biochemical
Method: (§4) As such, the compounds prepared in Examples were tested for inhibitory activity against FMS, DDR1 and DDR2 kinases using Kinase Screening and Profiling Service (Invitrogen, U.S.).

[2] = tested on: HepG2 cells (N-RAS mutant hepatoma carcinoma cell); assay: Inhibition on cell growth of N-RAS mutant cell HepG2 (SRB); type: cell-based; conditions: Homo sapiens, 72 hours, SRB staining, described as GI50 in the method
Method: as §1, with “mutant cells HepG2 cells (HCC)” for “mutant cells, SK-Mel-2”, “(ATCC # HB-8065™),” for “(ATCC #HTB-68™),”, “Md.). HepG2” for “Md.). SK-Mel-2”, “The cell lines” for “The cells”
as §2, with “HepG2” for “SK-Mel-2”
as §3
GI50 value is the concentration of test compound when the value of Equation 1 is 50, which indicates the concentration of test compound needed to reduce the growth of cancer cells to 50%. On each measurement, test compounds were compared with a control.

DDR1 = DDR1 (Homo sapiens (Human), UniProt Q08345); assay: DDR1 kinase activity, Kinase Screening and Profiling Service (Invitrogen); type: biochemical
Method: as §4

DDR2 = DDR2 (Homo sapiens (Human), UniProt Q16832); assay: DDR2 kinase activity, Kinase Screening and Profiling Service (Invitrogen); type: biochemical
Method: as §4

B-RAF^V600E = B-RAF^V600E (Homo sapiens (Human), UniProt P15056, V600E); assay: RAF kinase activity, Kinase Profiling Service (Invitrogen); type: biochemical; conditions: B-RAF V600E mutant; read-out: B-RAFv^600E (IC50)
Method: (§5) The levels of enzymatic inhibition of the compounds were calculated as percent inhibition at various concentrations. Based on percent inhibition, dose-response curves were plotted using GraphPad Prism software.

B-RAF normal type = B-RAF normal type (Homo sapiens (Human), UniProt P15056); assay: as above; type: biochemical
Method: as §5

RAF1 Y340D Y341D (C-RAF) = RAF1 Y340D Y341D (C-RAF) (Homo sapiens (Human), UniProt P04049, Y340D/Y341D); assay: as above; type: biochemical
Method: as §5

Chain of FMS (P07333 20-972): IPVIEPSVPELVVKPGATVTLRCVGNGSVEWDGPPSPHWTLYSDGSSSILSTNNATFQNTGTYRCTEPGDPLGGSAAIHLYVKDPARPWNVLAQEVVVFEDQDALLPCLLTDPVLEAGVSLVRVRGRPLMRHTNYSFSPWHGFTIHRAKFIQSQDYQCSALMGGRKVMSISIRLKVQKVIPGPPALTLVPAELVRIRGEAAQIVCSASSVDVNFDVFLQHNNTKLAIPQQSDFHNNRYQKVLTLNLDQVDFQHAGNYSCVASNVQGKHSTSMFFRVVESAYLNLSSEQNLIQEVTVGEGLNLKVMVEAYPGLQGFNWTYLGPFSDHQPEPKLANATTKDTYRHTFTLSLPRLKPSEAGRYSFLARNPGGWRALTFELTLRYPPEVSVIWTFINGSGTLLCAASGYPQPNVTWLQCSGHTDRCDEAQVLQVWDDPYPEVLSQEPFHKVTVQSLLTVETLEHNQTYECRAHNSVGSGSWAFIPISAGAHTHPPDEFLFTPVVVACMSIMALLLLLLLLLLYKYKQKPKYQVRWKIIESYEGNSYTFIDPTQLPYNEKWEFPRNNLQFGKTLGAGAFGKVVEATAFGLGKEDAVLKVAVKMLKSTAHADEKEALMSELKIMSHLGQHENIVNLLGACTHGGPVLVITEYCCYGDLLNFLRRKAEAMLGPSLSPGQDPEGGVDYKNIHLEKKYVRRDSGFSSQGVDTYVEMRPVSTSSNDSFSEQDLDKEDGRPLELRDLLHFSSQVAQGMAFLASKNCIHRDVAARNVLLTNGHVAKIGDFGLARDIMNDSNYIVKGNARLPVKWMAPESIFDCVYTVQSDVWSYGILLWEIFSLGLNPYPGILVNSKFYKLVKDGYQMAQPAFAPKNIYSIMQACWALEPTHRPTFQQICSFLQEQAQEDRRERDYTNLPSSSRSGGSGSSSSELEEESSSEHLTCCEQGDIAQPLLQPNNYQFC
Chain of DDR2 (Q16832 22-855): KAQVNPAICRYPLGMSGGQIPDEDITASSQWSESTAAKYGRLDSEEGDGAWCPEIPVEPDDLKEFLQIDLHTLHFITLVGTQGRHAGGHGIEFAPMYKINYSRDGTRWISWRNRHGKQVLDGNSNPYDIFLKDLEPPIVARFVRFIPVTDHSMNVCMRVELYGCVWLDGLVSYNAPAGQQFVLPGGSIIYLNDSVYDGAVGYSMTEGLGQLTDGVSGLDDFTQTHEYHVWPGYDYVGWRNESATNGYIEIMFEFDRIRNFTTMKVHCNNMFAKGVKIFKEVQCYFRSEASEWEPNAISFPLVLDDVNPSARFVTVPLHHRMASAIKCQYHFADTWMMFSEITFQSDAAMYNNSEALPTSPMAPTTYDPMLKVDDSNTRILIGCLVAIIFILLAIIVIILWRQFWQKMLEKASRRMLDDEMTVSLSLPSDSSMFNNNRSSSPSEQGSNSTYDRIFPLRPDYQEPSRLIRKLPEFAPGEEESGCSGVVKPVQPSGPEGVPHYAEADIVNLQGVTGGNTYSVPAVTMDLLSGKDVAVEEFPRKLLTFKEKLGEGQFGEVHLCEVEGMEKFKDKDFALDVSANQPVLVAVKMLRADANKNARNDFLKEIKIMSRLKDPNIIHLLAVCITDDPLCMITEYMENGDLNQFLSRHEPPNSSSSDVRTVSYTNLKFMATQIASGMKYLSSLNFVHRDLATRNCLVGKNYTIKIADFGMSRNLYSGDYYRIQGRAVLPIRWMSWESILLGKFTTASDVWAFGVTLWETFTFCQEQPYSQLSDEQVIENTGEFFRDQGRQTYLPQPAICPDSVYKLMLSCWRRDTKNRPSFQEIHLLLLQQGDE
Chain of B-RAF normal type (P15056 whole entry): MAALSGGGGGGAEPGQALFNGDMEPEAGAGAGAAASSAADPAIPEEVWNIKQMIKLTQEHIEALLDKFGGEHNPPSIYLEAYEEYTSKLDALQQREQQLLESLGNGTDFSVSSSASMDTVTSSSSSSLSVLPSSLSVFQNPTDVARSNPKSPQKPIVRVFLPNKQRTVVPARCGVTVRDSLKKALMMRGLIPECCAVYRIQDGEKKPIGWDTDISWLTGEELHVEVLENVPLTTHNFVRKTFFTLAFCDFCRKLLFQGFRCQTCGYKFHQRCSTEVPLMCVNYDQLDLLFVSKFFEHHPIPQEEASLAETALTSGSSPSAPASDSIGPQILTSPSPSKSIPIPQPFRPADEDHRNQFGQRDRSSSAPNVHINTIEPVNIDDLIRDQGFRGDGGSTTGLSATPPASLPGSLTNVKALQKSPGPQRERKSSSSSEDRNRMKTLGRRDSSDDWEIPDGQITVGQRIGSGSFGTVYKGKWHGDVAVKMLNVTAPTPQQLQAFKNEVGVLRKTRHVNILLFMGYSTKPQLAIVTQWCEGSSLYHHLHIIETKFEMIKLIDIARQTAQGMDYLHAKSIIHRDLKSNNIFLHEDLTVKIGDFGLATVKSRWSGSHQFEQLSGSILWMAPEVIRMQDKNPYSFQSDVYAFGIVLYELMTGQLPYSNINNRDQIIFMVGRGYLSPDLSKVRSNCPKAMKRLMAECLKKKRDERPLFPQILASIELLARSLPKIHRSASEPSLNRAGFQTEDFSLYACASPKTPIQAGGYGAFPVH
Chain of B-RAF^V600E (P15056 whole entry V600E): as the sequence (P15056 whole entry) above, with V600E counted along it
Chain of RAF1 Y340D Y341D (C-RAF) (P04049 whole entry Y340D/Y341D): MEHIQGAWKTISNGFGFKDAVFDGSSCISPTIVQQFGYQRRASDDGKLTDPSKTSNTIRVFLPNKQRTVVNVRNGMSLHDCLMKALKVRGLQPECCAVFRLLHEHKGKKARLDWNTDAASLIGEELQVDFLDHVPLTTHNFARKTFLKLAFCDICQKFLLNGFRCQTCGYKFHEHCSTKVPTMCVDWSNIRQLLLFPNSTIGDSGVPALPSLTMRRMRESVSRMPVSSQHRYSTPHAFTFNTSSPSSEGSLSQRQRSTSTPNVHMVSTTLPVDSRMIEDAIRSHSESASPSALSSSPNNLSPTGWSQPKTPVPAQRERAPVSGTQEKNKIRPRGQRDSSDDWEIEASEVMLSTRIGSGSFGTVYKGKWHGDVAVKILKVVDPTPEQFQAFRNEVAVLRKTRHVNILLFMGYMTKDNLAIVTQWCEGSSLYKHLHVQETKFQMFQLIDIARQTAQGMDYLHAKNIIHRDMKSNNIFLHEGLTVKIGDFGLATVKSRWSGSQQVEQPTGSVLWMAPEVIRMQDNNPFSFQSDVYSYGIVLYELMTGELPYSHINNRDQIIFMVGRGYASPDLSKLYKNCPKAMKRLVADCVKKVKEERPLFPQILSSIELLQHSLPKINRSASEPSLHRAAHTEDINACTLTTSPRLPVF
Chain of DDR1 (Q08345 19-913): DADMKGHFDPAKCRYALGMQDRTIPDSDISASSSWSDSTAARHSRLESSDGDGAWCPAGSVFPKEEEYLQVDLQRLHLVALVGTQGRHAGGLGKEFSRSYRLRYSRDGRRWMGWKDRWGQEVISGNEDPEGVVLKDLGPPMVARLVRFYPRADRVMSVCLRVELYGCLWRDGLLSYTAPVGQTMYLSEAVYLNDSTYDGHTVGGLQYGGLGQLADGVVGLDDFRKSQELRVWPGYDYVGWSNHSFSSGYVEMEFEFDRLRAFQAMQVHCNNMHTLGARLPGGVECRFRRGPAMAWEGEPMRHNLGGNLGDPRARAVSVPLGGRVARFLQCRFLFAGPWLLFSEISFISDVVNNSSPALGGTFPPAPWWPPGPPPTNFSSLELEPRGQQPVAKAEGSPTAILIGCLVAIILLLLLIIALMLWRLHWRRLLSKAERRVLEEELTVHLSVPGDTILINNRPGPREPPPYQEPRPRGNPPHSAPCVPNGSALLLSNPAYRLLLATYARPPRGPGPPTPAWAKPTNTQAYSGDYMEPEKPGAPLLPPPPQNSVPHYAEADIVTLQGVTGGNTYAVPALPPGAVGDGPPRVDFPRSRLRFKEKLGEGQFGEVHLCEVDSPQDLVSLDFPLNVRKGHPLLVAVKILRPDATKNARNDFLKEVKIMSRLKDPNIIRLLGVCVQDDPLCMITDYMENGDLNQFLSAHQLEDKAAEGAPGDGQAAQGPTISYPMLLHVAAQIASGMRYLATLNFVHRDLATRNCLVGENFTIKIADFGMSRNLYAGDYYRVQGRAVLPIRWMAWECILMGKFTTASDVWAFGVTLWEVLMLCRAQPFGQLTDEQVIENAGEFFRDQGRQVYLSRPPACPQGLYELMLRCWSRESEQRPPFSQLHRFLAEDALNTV

Structure (SMILES) | IC50 [1] | IC50 (FMS) | IC50 [2] | IC50 (DDR1) | IC50 (DDR2) | IC50 (B-RAF^V600E) | IC50 (B-RAF normal type) | IC50 (RAF1 Y340D Y341D (C-RAF))
CCCS(=O)(=O)Nc1ccc(F)c(C(=O)c2c[nH]c3ncc(-c4ccc(Cl)cc4)cc23)c1F [Control, Vemurafenib, reference compound] | > 1 µM | > 1 µM | > 1 µM | > 1 µM | > 1 µM | – | – | –
Cc1ccc2c(Nc3cccc(Cl)c3)nccc2c1NC(=O)c1csc2c(N)ncnc12 [Example 38, 4-amino-N-(1-((3-chlorophenyl)amino)-6-methylisoquinolin-5-yl)thieno[3,2-d]pyrimidine-7-carboxamide] | 0.097 µM | – | 0.041 µM | – | – | – | – | –
Cc1ccc2c(Nc3ccc(OC(F)F)cc3)nccc2c1NC(=O)c1csc2c(N)ncnc12 [Example 50, 4-amino-N-(1-((4-(difluoromethoxy)phenyl)amino)-6-methylisoquinolin-5-yl)thieno[3,2-d]pyrimidine-7-carboxamide] | 0.163 µM | – | 0.044 µM | – | – | 0.026 µM | 0.128 µM | 0.032 µM
Cc1ccc2c(Nc3ccc(Cl)c(CN(C)C)c3)nccc2c1NC(=O)c1csc2c(N)ncnc12 [Example 59, 4-amino-N-(1-((4-chloro-3-((dimethylamino)methyl)phenyl)amino)-6-methylisoquinolin-5-yl)thieno[3,2-d]pyrimidine-7-carboxamide] | 0.236 µM | – | 0.047 µM | – | – | 0.007 µM | 0.042 µM | 0.006 µM
Cc1ccc2c(Nc3ccc(F)c(Cl)c3)nccc2c1NC(=O)c1csc2c(N)ncnc12 [Example 105, 4-amino-N-(1-((3-chloro-4-fluorophenyl)amino)-6-methylisoquinolin-5-yl)thieno[3,2-d]pyrimidine-7-carboxamide] | 0.21 µM | 0.05 µM | 0.09 µM | 0.071 µM | 0.181 µM | 0.031 µM | 0.179 µM | 0.015 µM
Cc1ccc2c(Nc3cccc(Cl)c3F)nccc2c1NC(=O)c1csc2c(N)ncnc12 [Example 116, 4-amino-N-(1-((3-chloro-2-fluorophenyl)amino)-6-methylisoquinolin-5-yl)thieno[3,2-d]pyrimidine-7-carboxamide] | 0.076 µM | 0.01 µM | 0.038 µM | 0.023 µM | 0.044 µM | 0.007 µM | 0.056 µM | 0.005 µM

These reach a lower IC50 [1]. Values come first.

IC50 [1] | IC50 (FMS) | IC50 [2] | IC50 (DDR1) | IC50 (DDR2) | IC50 (B-RAF^V600E) | IC50 (B-RAF normal type) | IC50 (RAF1 Y340D Y341D (C-RAF)) | Structure (SMILES)
0.056 µM | 0.001 µM | 0.027 µM | 0.002 µM | 0.005 µM | 0.022 µM | 0.121 µM | 0.023 µM | Cc1ccc2c(Nc3ccc(Cl)cc3)nccc2c1NC(=O)c1csc2c(N)ncnc12 [Example 1, 4-amino-N-(1-((4-chlorophenyl)amino)-6-methylisoquinolin-5-yl)thieno[3,2-d]pyrimidine-7-carboxamide]
0.052 µM | – | 0.024 µM | – | – | 0.032 µM | 0.015 µM | 0.005 µM | COc1ccc(Nc2nccc3c(NC(=O)c4csc5c(N)ncnc45)c(C)ccc23)cc1 [Example 16, 4-amino-N-(1-((4-methoxyphenyl)amino)-6-methylisoquinolin-5-yl)thieno[3,2-d]pyrimidine-7-carboxamide]
0.06 µM | 0.004 µM | 0.03 µM | 0.005 µM | 0.01 µM | 0.005 µM | 0.012 µM | 0.007 µM | CC(=O)c1ccc(Nc2nccc3c(NC(=O)c4csc5c(N)ncnc45)c(C)ccc23)cc1 [Example 83, N-(1-((4-acetylphenyl)amino)-6-methylisoquinolin-5-yl)-4-aminothieno[3,2-d]pyrimidine-7-carboxamide]
